Data from paper PMC9736374, “Design, Synthesis and Antimicrobial Properties of New Tetracyclic Quinobenzothiazine Derivatives” (International Journal of Molecular Sciences, 2022).

Test system: Staphylococcus aureus ATCC 29213
Experiment: MIC, microtitration broth method
Assay type: cell-based
Conditions: ATCC29213; SA = Staphylococcus aureus ATCC 29213; 24 h, 37 °C

Row | MIC | SMILES
1 | 39.3 µM | C[n+]1cc2c(c3ccccc31)Nc1c(OCc3ccccc3)cccc1S2 [Compound 6l, 11-benzyloxy-5-methyl-12H-quino[3,4-b][1,4]benzothiazinium chloride]

Test system: methicillin-resistant S. aureus SA 3202 (MRSA1)
Experiment: MIC, microtitration broth method
Assay type: cell-based
Conditions: Staphylococcus aureus; MRSA1 = SA 3202; 24 h, 37 °C

Row | MIC | SMILES
2 | 39.3 µM | C[n+]1cc2c(c3ccccc31)Nc1c(OCc3ccccc3)cccc1S2 [Compound 6l, 11-benzyloxy-5-methyl-12H-quino[3,4-b][1,4]benzothiazinium chloride]

Test system: methicillin-resistant S. aureus SA 630 (MRSA2)
Experiment: MIC, microtitration broth method
Assay type: cell-based
Conditions: Staphylococcus aureus; MRSA2 = SA 630; 24 h, 37 °C

Row | MIC | SMILES
3 | 78.6 µM | C[n+]1cc2c(c3ccccc31)Nc1c(OCc3ccccc3)cccc1S2 [Compound 6l, 11-benzyloxy-5-methyl-12H-quino[3,4-b][1,4]benzothiazinium chloride]

Test system: methicillin-resistant S. aureus 63718 (MRSA3)
Experiment: MIC, microtitration broth method
Assay type: cell-based
Conditions: Staphylococcus aureus; MRSA3 = 63718; 24 h, 37 °C

Row | MIC | SMILES
4 | 39.3 µM | C[n+]1cc2c(c3ccccc31)Nc1c(OCc3ccccc3)cccc1S2 [Compound 6l, 11-benzyloxy-5-methyl-12H-quino[3,4-b][1,4]benzothiazinium chloride]

Test system: Enterococcus faecalis ATCC 29212
Experiment: MIC, microtitration broth method
Assay type: cell-based
Conditions: ATCC29212; EF = Enterococcus faecalis; 24 h, 37 °C

Row | MIC | SMILES
5 | 157 µM | C[n+]1cc2c(c3ccccc31)Nc1c(OCc3ccccc3)cccc1S2 [Compound 6l, 11-benzyloxy-5-methyl-12H-quino[3,4-b][1,4]benzothiazinium chloride]

Test system: vancomycin-resistant E. faecalis VRE 342B (VRE1)
Experiment: MIC, microtitration broth method
Assay type: cell-based, Enterococcus faecalis
Conditions: VRE1 = VRE 342B; 24 h, 37 °C

Row | MIC | SMILES
6 | 157 µM | C[n+]1cc2c(c3ccccc31)Nc1c(OCc3ccccc3)cccc1S2 [Compound 6l, 11-benzyloxy-5-methyl-12H-quino[3,4-b][1,4]benzothiazinium chloride]

Test system: vancomycin-resistant E. faecalis VRE 368 (VRE2)
Experiment: MIC, microtitration broth method
Assay type: cell-based, Enterococcus faecalis
Conditions: VRE2 = VRE 368; 24 h, 37 °C

Row | MIC | SMILES
7 | 157 µM | C[n+]1cc2c(c3ccccc31)Nc1c(OCc3ccccc3)cccc1S2 [Compound 6l, 11-benzyloxy-5-methyl-12H-quino[3,4-b][1,4]benzothiazinium chloride]

Test system: vancomycin-resistant E. faecalis VRE 725B (VRE3)
Experiment: MIC, microtitration broth method
Assay type: cell-based, Enterococcus faecalis
Conditions: VRE3 = VRE 725B; 24 h, 37 °C

Row | MIC | SMILES
8 | 157 µM | C[n+]1cc2c(c3ccccc31)Nc1c(OCc3ccccc3)cccc1S2 [Compound 6l, 11-benzyloxy-5-methyl-12H-quino[3,4-b][1,4]benzothiazinium chloride]

Test system: M. smegmatis ATCC 700084
Experiment: In vitro antimycobacterial MIC, broth dilution micro-method
Assay type: cell-based, Mycobacterium smegmatis
Conditions: Mycolicibacterium smegmatis, ATCC700084, 72 h; MS = M. smegmatis ATCC 700084; 3 days, 37 °C

Row | MIC | SMILES
9 | 39.3 µM | C[n+]1cc2c(c3ccccc31)Nc1c(OCc3ccccc3)cccc1S2 [Compound 6l, 11-benzyloxy-5-methyl-12H-quino[3,4-b][1,4]benzothiazinium chloride]

Test system: Mycobacterium marinum CAMP 5644
Experiment: as above
Assay type: cell-based
Conditions: CAMP5644, 504 h; MM = Mycobacterium marinum CAMP 5644; 21 days, 28 °C

Row | MIC | SMILES
10 | 9.83 µM | C[n+]1cc2c(c3ccccc31)Nc1c(OCc3ccccc3)cccc1S2 [Compound 6l, 11-benzyloxy-5-methyl-12H-quino[3,4-b][1,4]benzothiazinium chloride]

Test system: Staphylococcus aureus ATCC 29213
Experiment: MBC, agar aliquot subculture method
Assay type: cell-based
Conditions: ATCC29213; SA = Staphylococcus aureus ATCC 29213

Row | SMILES | MBC
11 | C[n+]1cc2c(c3ccccc31)Nc1c(OCc3ccccc3)cccc1S2 [Compound 6l, 11-benzyloxy-5-methyl-12H-quino[3,4-b][1,4]benzothiazinium chloride] | 39.3 µM

Test system: methicillin-resistant S. aureus SA 3202 (MRSA1)
Experiment: MBC, agar aliquot subculture method
Assay type: cell-based
Conditions: Staphylococcus aureus; MRSA1 = SA 3202

Row | SMILES | MBC
12 | C[n+]1cc2c(c3ccccc31)Nc1c(OCc3ccccc3)cccc1S2 [Compound 6l, 11-benzyloxy-5-methyl-12H-quino[3,4-b][1,4]benzothiazinium chloride] | 78.6 µM

Test system: methicillin-resistant S. aureus SA 630 (MRSA2)
Experiment: MBC, agar aliquot subculture method
Assay type: cell-based
Conditions: Staphylococcus aureus; MRSA2 = SA 630

Row | SMILES | MBC
13 | C[n+]1cc2c(c3ccccc31)Nc1c(OCc3ccccc3)cccc1S2 [Compound 6l, 11-benzyloxy-5-methyl-12H-quino[3,4-b][1,4]benzothiazinium chloride] | 78.6 µM

Test system: methicillin-resistant S. aureus 63718 (MRSA3)
Experiment: MBC, agar aliquot subculture method
Assay type: cell-based
Conditions: Staphylococcus aureus; MRSA3 = 63718

Row | SMILES | MBC
14 | C[n+]1cc2c(c3ccccc31)Nc1c(OCc3ccccc3)cccc1S2 [Compound 6l, 11-benzyloxy-5-methyl-12H-quino[3,4-b][1,4]benzothiazinium chloride] | 39.3 µM

Test system: Enterococcus faecalis ATCC 29212
Experiment: MBC, agar aliquot subculture method
Assay type: cell-based
Conditions: ATCC29212; EF = Enterococcus faecalis

Row | SMILES | MBC
15 | C[n+]1cc2c(c3ccccc31)Nc1c(OCc3ccccc3)cccc1S2 [Compound 6l, 11-benzyloxy-5-methyl-12H-quino[3,4-b][1,4]benzothiazinium chloride] | 157 µM

Test system: vancomycin-resistant E. faecalis VRE 342B (VRE1)
Experiment: MBC, agar aliquot subculture method
Assay type: cell-based, Enterococcus faecalis
Conditions: VRE1 = VRE 342B

Row | SMILES | MBC
16 | C[n+]1cc2c(c3ccccc31)Nc1c(OCc3ccccc3)cccc1S2 [Compound 6l, 11-benzyloxy-5-methyl-12H-quino[3,4-b][1,4]benzothiazinium chloride] | 157 µM

Test system: vancomycin-resistant E. faecalis VRE 368 (VRE2)
Experiment: MBC, agar aliquot subculture method
Assay type: cell-based, Enterococcus faecalis
Conditions: VRE2 = VRE 368

Row | SMILES | MBC
17 | C[n+]1cc2c(c3ccccc31)Nc1c(OCc3ccccc3)cccc1S2 [Compound 6l, 11-benzyloxy-5-methyl-12H-quino[3,4-b][1,4]benzothiazinium chloride] | 157 µM

Test system: vancomycin-resistant E. faecalis VRE 725B (VRE3)
Experiment: MBC, agar aliquot subculture method
Assay type: cell-based, Enterococcus faecalis
Conditions: VRE3 = VRE 725B

Row | SMILES | MBC
18 | C[n+]1cc2c(c3ccccc31)Nc1c(OCc3ccccc3)cccc1S2 [Compound 6l, 11-benzyloxy-5-methyl-12H-quino[3,4-b][1,4]benzothiazinium chloride] | 157 µM

Test system: normal human dermal fibroblasts (NHDF)
Experiment: In vitro cell viability, WST-1 assay
Assay type: cell-based
Conditions: 72 h
Protocol: Compounds were evaluated for their antiproliferative activity using NHDF (normal human dermal fibroblasts, ATCC, Manassas, VA, USA). The cultured cells were kept at 37 °C and 5% CO2. The cells were seeded (1 × 10^4 cells/well/100 μL DMEM supplemented with 10% FCS and streptomycin/penicillin) into 96-well plates (Corning Inc., Corning, NY, USA). Cells were counted using a hemocytometer (Burker chamber) and phase contrast Olympus IX50 microscope equipped with Sony SSC-DC58 AP camera and Olympus DP10 digital camera. The cell viability of the compounds was determined using the Cell Proliferation Reagent WST-1 assay (Roche Molecular Biochemicals, Mannheim, Germany). The examined cells were exposed to the tested compounds (1 mg/mL DMSO stock) for 72 h at various concentrations (0.1–100 μg/mL). The control was included in order to eliminate the DMSO effect at the concentration used. Cell cultures were incubated with WST-1 (10 μL) for 1 h. The absorbance of the samples was measured against a background control at 450 nm using a microplate reader with a reference wavelength at 600 nm. The obtained results are expressed as means of at least two independent experiments performed in triplicate.

Row | SMILES | IC50
19 | C[n+]1cc2c(c3ccccc31)Nc1c(OCc3ccccc3)cccc1S2 [Compound 6l, 11-benzyloxy-5-methyl-12H-quino[3,4-b][1,4]benzothiazinium chloride] | > 100 µM

Test system: not listed separately
Experiment: Lipophilicity by RP-TLC
Assay type: physicochemical
Conditions: Tris buffer pH 7.4/acetone, read-out: logPTLC
Protocol: The lipophilicity parameters were determined experimentally using reverse phase thin-layer chromatography (RP-TLC). Chromatograms were prepared on RP-18F254s plates (1.05559.0001, Merck, Germany) precoated with nonpolar silicone oil. Plates were developed in glass chromatography chambers previously saturated with vapor of mobile phase. The mobile phase was composed of 0.2M Tris buffer (pH = 7.4) and acetone in different concentrations, i.e., 50%, 60%, 70%, 80 and 90%. The chromatograms were visualised in UV light (λ = 254 nm). Determination of the RF coefficient was carried out twice for all compounds; in all cases, acetone concentrations used. The final value of RF is the mean of the two measurements. The obtained RF coefficient was used to calculate the value of the RM parameter according to the equation: RM = log [(1/RF) − 1]. By extrapolating RM values to zero acetone concentration, a relative RM0 lipophilicity parameter was obtained, according to the equation: RM = RM0 + bC, where b is slope and C is concentration of acetone in mobile phase. Based on RM0 and the calibration curve, the values of logPTLC for compounds 6a–l were determined. The calibration curve was calculated using the relationship between RM0 of the standard molecules (acetanilide, p-kresol, p-bromoacetophenone, benzophenone, anthracene) and the corresponding logP parameters specified by the extraction method, respectively. RM0 parameters of the standard molecules and quinobenzothiazine derivatives 6a–l were determined in the same empirical conditions.

Row | chromatographic logP | SMILES
20 | 3.1 | C[n+]1cc2c(c3ccccc31)Nc1c(OCc3ccccc3)cccc1S2 [Compound 6l, 11-benzyloxy-5-methyl-12H-quino[3,4-b][1,4]benzothiazinium chloride]
